Patent US10000471B2, “Pyrazole P38 map kinase inhibitors” (Respivert Limited, priority 2010, dated 2018)

Assays:
Type in all cases: cell-based, human
[1] = test system: Differentiated U937 cells; assay: Cell viability MTT assay; details: negative = apparent increase in viability; for MTT Assay (Viability) 4 h d-U937, percentage loss of cell viability: 4 hr in 5% FCS; for MTT Assay (Viability) 24 h d-U937, percentage loss of cell viability: 24 h in 10% FCS
Procedure, shortened: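 Differentiated U937 cells pre-incubated with compound either 4 hr in 5% FCS or 24 h in 10% FCS, then 1 hr MTT. Formazan dissolved in DMSO, absorbance at 550 nm. Percentage viability loss relative to 0.5% DMSO vehicle; apparent increases appear as negative percentages.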

[2] = test system: ICAM-1 induction in BEAS2B cells; assay: Poly I:C-induced ICAM-1 induction in BEAS2B cells; details: Homo sapiens, BEAS-2B, read-out: PolyIC/ICAM1 IC50 BEAS2B
Procedure, shortened: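 Human bronchial epithelial BEAS2B cells were pre-incubated with compound for 2 hr, then transfected with 1 μg/mL poly I:C. After 18 hr, surface ICAM-1 was measured by cell-based ELISA (OD450-655) and normalized to crystal violet cell counts (OD595). IC50 came from inhibition versus vehicle across the concentration-response curve.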

[3] = test system: IL-8 release in d-U937 cells; assay: LPS-induced IL-8 release in d-U937 cells; details: Homo sapiens, dU937
Procedure, shortened: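 PMA-differentiated (100 ng/ml, 48–72 hr) U937 macrophage-type cells pre-incubated 2 hr with compound, then stimulated 4 hr with 0.1 μg/mL E. coli O111:B4 LPS; supernatant TNFα and IL-8 measured by sandwich ELISA. TNFα inhibition expressed relative to 10 μg/mL BIRB796, giving REC50; IL-8 inhibition versus vehicle, giving IC50.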

| IC50 [3] | Compound | MTT Assay (Viability) 4 h d-U937, percentage loss of cell viability [1] | MTT Assay (Viability) 24 h d-U937, percentage loss of cell viability [1] | IC50 [2] |
| --- | --- | --- | --- | --- |
| 0.8 nM | CNC(=O)Nc1cc(Oc2ccc(NC(=O)Nc3cc(C(C)(C)C)nn3-c3ccc(OC)cc3)c(Cl)c2Cl)ccn1 [Example 9, N-Methyl-N′-4-(4-(3-(3-tert-butyl-1-p-anisyl-1H-pyrazol-5-yl)ureido)-2,3-dichlorophen-1-yloxy)pyridin-2-ylurea] | −26.8% | 65.3% | 0.3 nM |
| 0.8 nM | COc1ccc(-n2nc(C(C)(C)C)cc2NC(=O)Nc2ccc(Oc3ccnc(NC(=O)N4CCCC4)c3)c(Cl)c2Cl)cc1 [Example 76, N-(4-(4-(3-(3-(tert-butyl)-1-(4-methoxyphenyl)-1H-pyrazol-5-yl)ureido)-2,3-dichlorophenoxy)pyridin-2-yl)pyrrolidine-1-carboxamide] | −25.5% | 27.2% | 0.3 nM |
